Measurements as given in PubChem BioAssay (NCI).
Values joined by “and” are separate entries in the source; they are usually repeats but may differ in a detail not shown here. Equal values may be shown once.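 GI50 marks 50% less growth. At the TGI there is no net growth.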

Experiments:
Experiment in all cases: NCI-60 cell line screen, 384-well format
ACHN renal = test system: ACHN renal
BT-549 breast = test system: BT-549 breast
CAKI-1 renal = test system: CAKI-1 renal
COLO 205 colon = test system: COLO 205 colon
DU-145 prostate = test system: DU-145 prostate
EKVX NSCLC = test system: EKVX NSCLC
HCT-116 colon = test system: HCT-116 colon
HCT-15 colon = test system: HCT-15 colon
HL-60(TB) leukemia = test system: HL-60(TB) leukemia
HOP-92 NSCLC = test system: HOP-92 NSCLC
HS 578T breast = test system: HS 578T breast
K-562 leukemia = test system: K-562 leukemia
KM12 colon = test system: KM12 colon
LOX IMVI melanoma = test system: LOX IMVI melanoma
M14 melanoma = test system: M14 melanoma
MALME-3M melanoma = test system: MALME-3M melanoma
MCF7 breast = test system: MCF7 breast
MDA-MB-231 breast = test system: MDA-MB-231 breast
MDA-MB-468 breast = test system: MDA-MB-468 breast
MOLT-4 leukemia = test system: MOLT-4 leukemia
NCI-H226 lung = test system: NCI-H226 lung
NCI-H23 lung = test system: NCI-H23 lung
NCI-H322M lung = test system: NCI-H322M lung
NCI-H522 lung = test system: NCI-H522 lung
NCI/ADR-RES ovarian = test system: NCI/ADR-RES ovarian
OVCAR-4 ovarian = test system: OVCAR-4 ovarian
OVCAR-5 ovarian = test system: OVCAR-5 ovarian
OVCAR-8 ovarian = test system: OVCAR-8 ovarian
RPMI-8226 leukemia = test system: RPMI-8226 leukemia
RXF 393 renal = test system: RXF 393 renal
SF-295 CNS = test system: SF-295 CNS
SK-MEL-28 melanoma = test system: SK-MEL-28 melanoma
SK-MEL-5 melanoma = test system: SK-MEL-5 melanoma
SK-OV-3 ovarian = test system: SK-OV-3 ovarian
SNB-75 CNS = test system: SNB-75 CNS
SR leukemia = test system: SR leukemia
SW-620 colon = test system: SW-620 colon
TK-10 renal = test system: TK-10 renal
786-0 renal = test system: 786-0 renal
A498 renal = test system: A498 renal
A549 NSCLC = test system: A549 NSCLC
HOP-62 NSCLC = test system: HOP-62 NSCLC
HT29 colon = test system: HT29 colon
IGROV1 ovarian = test system: IGROV1 ovarian
MDA-MB-435 melanoma = test system: MDA-MB-435 melanoma
NCI-H460 NSCLC = test system: NCI-H460 NSCLC
OVCAR-3 ovarian = test system: OVCAR-3 ovarian
PC-3 prostate = test system: PC-3 prostate
SF-268 CNS = test system: SF-268 CNS
SF-539 CNS = test system: SF-539 CNS
SK-MEL-2 melanoma = test system: SK-MEL-2 melanoma
SN12C renal = test system: SN12C renal
SNB-19 CNS = test system: SNB-19 CNS
T-47D breast = test system: T-47D breast
U251 glioblastoma = test system: U251 glioblastoma
UACC-257 melanoma = test system: UACC-257 melanoma
UACC-62 melanoma = test system: UACC-62 melanoma
UO-31 renal = test system: UO-31 renal

CCc1cc2c(cc1N1CCC(N3CCOCC3)CC1)C(C)(C)c1[nH]c3cc(C#N)ccc3c1C2=O
GI50 (ACHN renal): 5.04 µM and 1.42 µM | TGI (ACHN renal): 12.3 µM and 3.12 µM | GI50 (BT-549 breast): 4.75 µM and 0.496 µM | TGI (BT-549 breast): 9 µM and 1.62 µM | GI50 (CAKI-1 renal): 5.87 µM and 2.17 µM | TGI (CAKI-1 renal): 14.2 µM and 5.76 µM | GI50 (COLO 205 colon): 7.03 µM and 1.16 µM | GI50 (DU-145 prostate): 1.63 µM and 0.992 µM | TGI (DU-145 prostate): 6.57 µM and 2.37 µM | GI50 (EKVX NSCLC): 4.67 µM and 1.37 µM | TGI (EKVX NSCLC): 11.4 µM and 2.98 µM | GI50 (HCT-116 colon): 5.79 µM and 1.47 µM | TGI (HCT-116 colon): 11.5 µM and 3.08 µM | TGI (HCT-15 colon): 8.23 µM and 1.45 µM | GI50 (HL-60(TB) leukemia): 6.14 µM and 0.686 µM | TGI (HL-60(TB) leukemia): 10.9 µM and 1.9 µM | GI50 (HOP-92 NSCLC): 5.13 µM and 0.841 µM | TGI (HOP-92 NSCLC): 11.3 µM and 2.62 µM | TGI (HS 578T breast): 8.55 µM and 1.21 µM | GI50 (K-562 leukemia): 0.633 µM | TGI (K-562 leukemia): 5.17 µM | TGI (KM12 colon): 6.7 µM and 1.47 µM | GI50 (LOX IMVI melanoma): 4.67 µM and 1.17 µM | TGI (LOX IMVI melanoma): 9.04 µM and 2.67 µM | GI50 (M14 melanoma): 5.43 µM and 0.726 µM | TGI (M14 melanoma): 13.3 µM and 4.3 µM | GI50 (MALME-3M melanoma): 2.11 µM and 0.839 µM | TGI (MALME-3M melanoma): 5.69 µM and 2.24 µM | TGI (MCF7 breast): 8.58 µM and 2.05 µM | GI50 (MDA-MB-231 breast): 1.11 µM and 1.26 µM | TGI (MDA-MB-231 breast): 2.73 µM and 3.32 µM | GI50 (MDA-MB-468 breast): 2.56 µM and 0.567 µM | TGI (MDA-MB-468 breast): 6.54 µM and 1.71 µM | GI50 (MOLT-4 leukemia): 1.92 µM and 0.302 µM | TGI (MOLT-4 leukemia): 7.47 µM and 1.5 µM | GI50 (NCI-H226 lung): 3.1 µM | TGI (NCI-H226 lung): 8.34 µM and 2.64 µM | GI50 (NCI-H23 lung): 4.88 µM and 1.47 µM | TGI (NCI-H23 lung): 13.1 µM and 10.9 µM | TGI (NCI-H322M lung): 29.4 µM and 3.81 µM | GI50 (NCI-H522 lung): 2.92 µM and 1.15 µM | TGI (NCI-H522 lung): 8.64 µM and 2.58 µM | GI50 (NCI/ADR-RES ovarian): 0.666 µM and 1.54 µM | TGI (NCI/ADR-RES ovarian): 2.96 µM and 4.51 µM | GI50 (OVCAR-4 ovarian): 1.19 µM and 0.437 µM | TGI (OVCAR-4 ovarian): 2.46 µM and 1.5 µM | GI50 (OVCAR-5 ovarian): 5.33 µM and 1.21 µM | GI50 (OVCAR-8 ovarian): 4.12 µM and 1.11 µM | TGI (OVCAR-8 ovarian): 8.68 µM and 2.36 µM | GI50 (RPMI-8226 leukemia): 1.74 µM and 0.399 µM | TGI (RPMI-8226 leukemia): 4.44 µM and 1.85 µM | GI50 (RXF 393 renal): 2.45 µM and 0.547 µM | TGI (RXF 393 renal): 7.13 µM and 1.88 µM | TGI (SF-295 CNS): 11.3 µM and 2.17 µM | GI50 (SK-MEL-28 melanoma): 17.5 µM and 1.8 µM | TGI (SK-MEL-28 melanoma): 31.3 µM and 3.56 µM | TGI (SK-MEL-5 melanoma): 8.31 µM and 1.6 µM | GI50 (SK-OV-3 ovarian): 11 µM and 1.15 µM | TGI (SNB-75 CNS): 10.6 µM and 1.07 µM | TGI (SR leukemia): 0.686 µM | GI50 (SW-620 colon): 5.07 µM and 0.686 µM | GI50 (TK-10 renal): 11.4 µM and 1.45 µM | TGI (TK-10 renal): 26.6 µM and 3.09 µM

Cc1cc(Oc2ccc3nc(COc4ccc(CC5SC(=O)NC5=O)cc4)n(C)c3c2)cc(C)c1N (stereo not drawn)
GI50 ([…]-0 renal): 30.2 µM | TGI (786-0 renal): > 100 µM | GI50 (A498 renal): 25.7 µM | TGI (A498 renal): 62.9 µM | GI50 (A549 NSCLC): 24.8 µM | TGI (A549 NSCLC): 58.2 µM | GI50 (ACHN renal): 31.3 µM | TGI (ACHN renal): 98.7 µM | GI50 (BT-549 breast): 16.4 µM | TGI (BT-549 breast): 31.2 µM | GI50 (CAKI-1 renal): 29.5 µM | TGI (CAKI-1 renal): 74.9 µM | GI50 (COLO 205 colon): 33.7 µM | TGI (COLO 205 colon): 82.7 µM | GI50 (DU-145 prostate): 19 µM | TGI (DU-145 prostate): 36 µM | GI50 (EKVX NSCLC): 22.6 µM | TGI (EKVX NSCLC): 44.2 µM | GI50 (HCT-116 colon): 15.4 µM | TGI (HCT-116 colon): 30.6 µM | GI50 (HCT-15 colon): 21.7 µM | TGI (HCT-15 colon): 43 µM | GI50 (HL-60(TB) leukemia): 14 µM | TGI (HL-60(TB) leukemia): 27.2 µM | GI50 (HOP-62 NSCLC): 14.6 µM | TGI (HOP-62 NSCLC): 35 µM | GI50 (HOP-92 NSCLC): 23.9 µM | TGI (HOP-92 NSCLC): 60.6 µM | GI50 (HS 578T breast): 18.6 µM | TGI (HS 578T breast): 42.6 µM | GI50 (HT29 colon): 27.2 µM | TGI (HT29 colon): 73.1 µM | GI50 (IGROV1 ovarian): 29.6 µM | TGI (IGROV1 ovarian): 79.5 µM | GI50 (K-562 leukemia): 18.8 µM | TGI (K-562 leukemia): 49.1 µM | GI50 (KM12 colon): 17.2 µM | TGI (KM12 colon): 31.8 µM | GI50 (M14 melanoma): 19.9 µM | TGI (M14 melanoma): 39.9 µM | GI50 (MALME-3M melanoma): 20.7 µM | TGI (MALME-3M melanoma): 39.3 µM | GI50 (MCF7 breast): 5.45 µM | TGI (MCF7 breast): 22 µM | GI50 (MDA-MB-231 breast): 30.4 µM | TGI (MDA-MB-231 breast): > 100 µM | GI50 (MDA-MB-435 melanoma): 20 µM | TGI (MDA-MB-435 melanoma): 43.9 µM | GI50 (MDA-MB-468 breast): 16.7 µM | TGI (MDA-MB-468 breast): 36.2 µM | GI50 (MOLT-4 leukemia): 14 µM | TGI (MOLT-4 leukemia): 27.1 µM | GI50 (NCI-H226 lung): 22.6 µM | TGI (NCI-H226 lung): 46.7 µM | GI50 (NCI-H23 lung): 15.6 µM | TGI (NCI-H23 lung): 29.5 µM | GI50 (NCI-H322M lung): 32.8 µM | TGI (NCI-H322M lung): 77.4 µM | GI50 (NCI-H460 NSCLC): 15.9 µM | TGI (NCI-H460 NSCLC): 31.9 µM | GI50 (NCI-H522 lung): 20.4 µM | TGI (NCI-H522 lung): 41.4 µM | GI50 (OVCAR-3 ovarian): 19.1 µM | TGI (OVCAR-3 ovarian): 35.8 µM | GI50 (OVCAR-4 ovarian): 29.4 µM | TGI (OVCAR-4 ovarian): 75.2 µM | GI50 (OVCAR-5 ovarian): 38.2 µM | TGI (OVCAR-5 ovarian): > 100 µM | GI50 (OVCAR-8 ovarian): 22.4 µM | TGI (OVCAR-8 ovarian): 53.7 µM | GI50 (PC-3 prostate): 17.3 µM | TGI (PC-3 prostate): 35.4 µM | GI50 (RXF 393 renal): 16.8 µM | TGI (RXF 393 renal): 48.4 µM | GI50 (SF-268 CNS): 23.9 µM | TGI (SF-268 CNS): 57.7 µM | GI50 (SF-295 CNS): 26.3 µM | TGI (SF-295 CNS): 66.4 µM | GI50 (SF-539 CNS): 17.5 µM | TGI (SF-539 CNS): 33.9 µM | GI50 (SK-MEL-2 melanoma): 20.3 µM | TGI (SK-MEL-2 melanoma): 35.6 µM | GI50 (SK-MEL-28 melanoma): 23 µM | TGI (SK-MEL-28 melanoma): 50.7 µM | GI50 (SK-MEL-5 melanoma): 18.8 µM | TGI (SK-MEL-5 melanoma): 32.9 µM | GI50 (SK-OV-3 ovarian): 25.8 µM | TGI (SK-OV-3 ovarian): 66.4 µM | GI50 (SN12C renal): 28.7 µM | TGI (SN12C renal): > 100 µM | GI50 (SNB-19 CNS): 42 µM | TGI (SNB-19 CNS): > 100 µM | GI50 (SNB-75 CNS): 22 µM | TGI (SNB-75 CNS): 50 µM | GI50 (SR leukemia): 6.93 µM | TGI (SR leukemia): 19.4 µM | GI50 (SW-620 colon): 25.6 µM | TGI (SW-620 colon): 68.8 µM | GI50 (T-47D breast): 16.9 µM | TGI (T-47D breast): 31.1 µM | GI50 (TK-10 renal): 27.4 µM | TGI (TK-10 renal): 80.5 µM | GI50 (U251 glioblastoma): 21 µM | TGI (U251 glioblastoma): 45.1 µM | GI50 (UACC-257 melanoma): 24.5 µM | TGI (UACC-257 melanoma): 48.6 µM | GI50 (UACC-62 melanoma): 17.7 µM | TGI (UACC-62 melanoma): 31.9 µM | GI50 (UO-31 renal): 24.1 µM | TGI (UO-31 renal): 56.9 µM
